Patent publication US20070111956A1, “Remedy for sarcoidosis and method of treating the same” (Japan Science and Technology Agency, priority 2003, published 2007)
Structures can show the parent of a compound that is named as a salt.

Columns and labels:
[1] = test system: mice immunized three times with P. acnes; assay: Antibiotic treatment in the mouse pulmonary granuloma (sarcoidosis) model: BAL cell counts and histology; assay type: in vivo; settings: for decrease of the total number of BAL leukocytes (improved by): percentage in comparison to the control (PBS) group set at 100; for number of CD4+ BAL cells decreased by: two weeks after the third immunization, antibiotics begun before immunization, FIG. 6b
Protocol: Female C57BL/6J mice of 5 to 7 weeks of age were obtained from CLEA Japan (Shizuoka, Japan) or Japan SLC, Inc. (Tokyo, Japan), and kept under specific pathogen-free (SPF) conditions in the animal facility of the Department of Molecular Preventive Medicine, Graduated School of Medicine, the University of Tokyo. All animal experiments were conducted in accordance with the guidelines of the University of Tokyo.
P. acnes-sensitized CD4^+ T cells were isolated from groins of normal mice and mice immunized three times. Immunization was conducted by subcutaneous injection of 400 μg of heat-killed P. acnes (ATCC11828, American Type Culture Collection, Manassas, Va.) and Freund's complete adjuvant (Difco, Detroit, Mich.) into the footpad at 2-week intervals. CD4^+ cells were isolated with the use of MACS system (Miltenyi Biotech, Bergisch Gladbach, Germany) according to manufacturer's instructions. The purity of CD4^+ cell populations was 94% or higher, as confirmed by immunostaining flow cytometry. The isolated CD4^+ cells (2×10^6 cells/PBS 200 μl) were injected into the tail vein of normal mice, and histological analysis of the lungs was conducted two weeks after the injection.
BAL cells were collected by five injections of 0.8 ml of sterile PBS containing 2% FCS (Sigma, St. Louis, Mo.) and 2 mM EDTA. The total number of BAL leukocytes was counted with a hemocytometer. Before the analysis with EPICS Elite instrument (Beckman Coulter, Miami, Fla.), BAL cells were preincubated with rat anti-mouse CD16/CD32 (clone; 2.4G2) mAb to block FcR-mediated binding, and then incubated for […] at 4° C. with FITC-conjugated anti-CD4 (H129.19) mAb and PE-conjugated anti-CD8a (53-6.7) mAb, both from BD Pharmingen.
Minocycline hydrochloride (MINO) (Wyeth Ledele, Tokyo, Japan) and clindamycin (CLDM) (Pharmacia, Tokyo, Japan) were used. On day one, 133 μg of MINO and 1.6 mg of CLDM were administered intratrancheally (i.t.). Subsequently, the same dose of each antibiotic was injected intraperitoneally (i.p.) everyday for one week before immunization, then intraperitoneal injection was conducted three times per week. During the experiment, mice were given water containing each antibiotic at the same dose as mentioned above. Similarly, ampicillin (ABPC), cefazolin sodium (CEZ), gentamicin sulfate (GM), fosfomycin (FOM), clarithromycin (CAM) were used and single dose of these antibiotics was set by calculating the maximum amount for regular use by adults based on their body weight.

[2] = Examination for nonspecific immunosuppression (ear swelling, spleen index); assay type: in vivo, mouse; settings: in comparison to PBS control; FIG. 9
[3] = test system: indigenous P. acnes in the mouse lung; assay: PCR detection of indigenous P. acnes in the mouse lung after antibiotics; assay type: in vivo, Propionibacterium acnes; settings: PBS as a control; FIG. 8
Protocol: Samples of 1 μg of total RNA were isolated from the lungs, and regional lymph nodes samples of the lung, the liver, the skin and the pancreas of SPF mice using Trizol (Invitrogen, Groningen, the Netherlands) according to the manufacturer's instructions. Then, RNA samples were reverse transcribed into cDNA, and amplified (J. Exp. Med. 193, 35-49, 2001; J. Clin. Invest. 102, 1933-1941, 1998). PCR products of 16s ribosomal RNA of P. acnes were electrophoresed on 2.5% agarose gel. The bands visualized by ethidium bromide staining were expected size for each mRNA product. Oligonucleotide primers for P. acnes were designed as described previously (J. Clin. Microbiol. 40, 198-204, 2002): forward, 5′-[…]-3′ (SEQ ID NO: 1); reverse, 5′-TTCCGACGCGATCAACCA-3′ (SEQ ID NO: 2). Contamination of P. acnes during the experiment was checked by buffer control. As primers for GAPDH as an internal standard, previously described ones were used (J. Exp. Med. 193, 35-49, 2001). PCR conditions: heated at 95° C. for 5 min, followed by 40 cycles of 95° C. for 30 sec, 58° C. for 60 sec, 72° C. for 60 sec, and finally heated at 72° C. for 10 min.
Minocycline hydrochloride (MINO) (Wyeth Ledele, Tokyo, Japan) and clindamycin (CLDM) (Pharmacia, Tokyo, Japan) were used. On day one, 133 μg of MINO and 1.6 mg of CLDM were administered intratrancheally (i.t.). […]

Compound	decrease of the total number of BAL leukocytes (improved by) ([1]; FIG. 7)	decrease of the total number of BAL leukocytes (improved by), group administered for a short period ([1]; FIG. 7, short: antibiotics initiated one month after treatment of the model (at the last immunization), versus PBS set at 100)	number of CD4+ BAL cells decreased by [1]	size of ear swelling [2]	spleen index [2]	effect on BAL cells (FIG. 7), in words ([1]; FIG. 7, in comparison to the control (PBS) group)	indigenous P. acnes in the mouse lung by PCR [3]
CC1(C)S[C@@H]2[C@H](NC(=O)[C@H](N)c3ccccc3)C(=O)N2[C@H]1C(=O)O [ABPC, ampicillin]	46.1%						
CCC[C@@H]1C[C@@H](C(=O)N[C@@H]([C@H]2O[C@H](SC)[C@H](O)[C@@H](O)[C@H]2O)[C@H](C)Cl)N(C)C1 [CLDM, clindamycin]	42.1%	74.3%	42.1%	no marked differences	no marked differences		
CN(C)c1ccc(O)c2c1C[C@H]1C[C@H]3[C@H](N(C)C)C(O)=C(C(N)=O)C(=O)[C@@]3(O)C(O)=C1C2=O [MINO, minocycline hydrochloride]	53.5%		53.5%	no marked differences	no marked differences		
gentamicin sulfate [GM]						no effect	did not decrease so much
CC[C@H]1OC(=O)[C@H](C)[C@@H](O[C@H]2C[C@@](C)(OC)[C@@H](O)[C@H](C)O2)[C@H](C)[C@@H](O[C@@H]2O[C@H](C)C[C@H](N(C)C)[C@H]2O)[C@](C)(OC)C[C@@H](C)C(=O)[C@H](C)[C@@H](O)[C@]1(C)O [CAM, clarithromycin]	48.3%						
